From US6958347B2, “Aminophenanthridinone and aminophenanthridine as NPY-5 antagonists” (Pfizer Inc., priority 2002, dated 2005)

Target: T1, Y1 (Homo sapiens, UniProt P25929)
T1 sequence (P25929 1-384): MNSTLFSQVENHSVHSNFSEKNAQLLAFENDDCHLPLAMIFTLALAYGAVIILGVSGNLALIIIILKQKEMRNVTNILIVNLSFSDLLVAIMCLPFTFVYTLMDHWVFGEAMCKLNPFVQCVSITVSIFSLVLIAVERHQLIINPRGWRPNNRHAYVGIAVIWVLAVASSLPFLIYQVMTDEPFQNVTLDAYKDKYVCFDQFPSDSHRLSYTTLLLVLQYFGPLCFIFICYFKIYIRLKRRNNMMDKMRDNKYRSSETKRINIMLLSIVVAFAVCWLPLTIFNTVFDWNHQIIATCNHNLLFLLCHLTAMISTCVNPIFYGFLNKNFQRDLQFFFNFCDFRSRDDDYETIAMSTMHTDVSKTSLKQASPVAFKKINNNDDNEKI
Experiment: Endogenous NPY response of host Bowes melanoma cells (low levels of Y1 responses)
Conditions: 10 uM; human Bowes melanoma cells (HMCB)

Structure (SMILES): NC(N)=NCCC[C@@H](NC(=O)C(c1ccccc1)c1ccccc1)C(=O)NCc1ccc(O)cc1 [BIBP3226]
- block of the endogenous NPY response: completely blocks
